Assay results taken from patent US11053204B2, “Pyrimidinyloxy benzene derivatives as herbicides” (FMC Corporation, priority 2015, dated 2021).

Key:
Format in all cases: in vivo
[1] = tested on: Italian ryegrass (Lolium multiflorum); test: Test A preemergence, visual injury rating
Method in brief: (§1)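 Greenhouse pot test, loam/sand soil. Formulation: non-phytotoxic solvent mix plus surfactant. Pre: directed spray onto soil after sowing. Post: plants at 1–2 leaf, 2–10 cm. Rated visually vs untreated controls at ~10 d, 0 (no effect) to 100 (complete control).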

[2] = tested on: ragweed (common ragweed, Ambrosia elatior); test: Test A preemergence, visual injury rating
Method in brief: as §1

[3] = tested on: barnyardgrass (Echinochloa crus-galli); test: Test A preemergence, visual injury rating
Method in brief: as §1

[4] = tested on: pigweed (Amaranthus retroflexus); test: Test A preemergence, visual injury rating
Method in brief: as §1

[5] = tested on: giant foxtail (Setaria faberii); test: Test A preemergence, visual injury rating
Method in brief: as §1

[6] = tested on: kochia (Kochia scoparia); test: Test A preemergence, visual injury rating
Method in brief: as §1

[7] = tested on: ducksalad (Heteranthera limosa); test: Test B flooded paddy test, plant response rating; settings: 250 g ai/ha; Flood; scale of 0 to 100 where 0 is no effect and 100 is complete control; 13 to 15 days
Method in brief: (§2)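 Greenhouse pots flooded to 3 cm above soil at time of treatment received compound via the water, which stayed at that level.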

[8] = tested on: barnyardgrass (Echinochloa crus-galli); test: Test B flooded paddy test, plant response rating; settings: 250 g ai/ha; Flood; scale of 0 to 100 where 0 is no effect and 100 is complete control; 13 to 15 days
Method in brief: as §2

[9] = tested on: rice (Oryza sativa); test: Test B flooded paddy test, plant response rating; settings: 250 g ai/ha; Flood; scale of 0 to 100 where 0 is no effect and 100 is complete control; 13 to 15 days
Method in brief: as §2

[10] = tested on: sedge, umbrella (small-flower umbrella sedge, Cyperus difformis); test: Test B flooded paddy test, plant response rating; settings: 250 g ai/ha; Flood; scale of 0 to 100 where 0 is no effect and 100 is complete control; 13 to 15 days
Method in brief: as §2

[11] = tested on: Italian ryegrass (Lolium multiflorum); test: Test A postemergence, visual injury rating
Method in brief: as §1

[12] = tested on: ragweed (common ragweed, Ambrosia elatior); test: Test A postemergence, visual injury rating
Method in brief: as §1

[13] = tested on: wheat (Triticum aestivum); test: Test A postemergence, visual injury rating
Method in brief: as §1

[14] = tested on: corn (Zea mays); test: Test A postemergence, visual injury rating
Method in brief: as §1

[15] = tested on: barnyardgrass (Echinochloa crus-galli); test: Test A postemergence, visual injury rating; settings: 0 is no effect, 100 is complete control; for Barnyardgrass plant response rating: 0 to 100 scale, approximately 10 days
Method in brief: as §1

[16] = tested on: pigweed (Amaranthus retroflexus); test: Test A postemergence, visual injury rating
Method in brief: as §1

[17] = tested on: galium (catchweed bedstraw, Galium aparine); test: Test A postemergence, visual injury rating
Method in brief: as §1

[18] = tested on: giant foxtail (Setaria faberii); test: Test A postemergence, visual injury rating
Method in brief: as §1

[19] = tested on: kochia (Kochia scoparia); test: Test A postemergence, visual injury rating
Method in brief: as §1

[20] = tested on: blackgrass (Alopecurus myosuroides); test: Test A postemergence, visual injury rating
Method in brief: as §1

[21] = 125 g ai/ha, 0 to 100 scale (0 no effect, 100 complete control)
[22] = 500 g ai/ha, 0 to 100 scale (0 no effect, 100 complete control)
[23] = 125 g ai/ha, 0 is no effect, 100 is complete control
[24] = 500 g ai/ha, 0 is no effect, 100 is complete control
[25] = 31 g ai/ha, 0 to 100 scale, 0 no effect, 100 complete control
[26] = 31 g ai/ha, 0 to 100 scale, 0 is no effect, 100 is complete control, approximately 10 days
[27] = 125 g ai/ha, 0 to 100 scale, 0 is no effect, 100 is complete control, approximately 10 days
[28] = 31 g ai/ha, 0 to 100 scale (0 no effect, 100 complete control)

Compound: CN(OCC(F)(F)F)C(=O)c1c(Br)cccc1Oc1ncc(Cl)cn1 [Compound 25]
- Ryegrass, Italian plant response rating [1, 21]: 0
- Ryegrass, Italian plant response rating [1, 22]: 0
- Ragweed plant response rating [2, 21]: 0
- Ragweed plant response rating [2, 22]: 0
- Barnyardgrass plant response rating [3, 21]: 0
- Barnyardgrass plant response rating [3, 22]: 30
- Pigweed plant response rating [4, 21]: 40
- Pigweed plant response rating [4, 22]: 80
- Foxtail, Giant plant response rating [5, 21]: 10
- Foxtail, Giant plant response rating [5, 22]: 60
- Kochia plant response rating [6, 21]: 0
- Kochia plant response rating [6, 22]: 50
- Plant response rating, Ducksalad [7]: 0
- Plant response rating, Barnyardgrass [8]: 0
- Plant response rating, Rice [9]: 0
- Plant response rating, Sedge, Umbrella [10]: 0
- Ryegrass, Italian plant response rating (0 to 100 scale) [11, 23]: 0
- Ryegrass, Italian plant response rating (0 to 100 scale) [11, 24]: 0
- Ragweed plant response rating (0 to 100 scale) [12, 23]: 10
- Ragweed plant response rating (0 to 100 scale) [12, 24]: 20
- Wheat plant response rating (0 to 100 scale) [13, 23]: 0
- Wheat plant response rating (0 to 100 scale) [13, 24]: 10
- Corn plant response rating (0 to 100 scale) [14, 23]: 0
- Corn plant response rating (0 to 100 scale) [14, 24]: 20
- Barnyardgrass plant response rating (0 to 100 scale) ([15]; 125 g ai/ha): 0
- Barnyardgrass plant response rating (0 to 100 scale) ([15]; 500 g ai/ha): 10
- Pigweed plant response rating (0 to 100 scale) [16, 23]: 30
- Pigweed plant response rating (0 to 100 scale) [16, 24]: 60
- Galium plant response rating (0 to 100 scale) [17, 23]: 20
- Galium plant response rating (0 to 100 scale) [17, 24]: 50
- Foxtail, Giant plant response rating (0 to 100 scale) [18, 23]: 0
- Foxtail, Giant plant response rating (0 to 100 scale) [18, 24]: 10
- Kochia plant response rating (0 to 100 scale) [19, 23]: 10
- Kochia plant response rating (0 to 100 scale) [19, 24]: 50
- Blackgrass plant response rating (0 to 100 scale) [20, 23]: 0
- Blackgrass plant response rating (0 to 100 scale) [20, 24]: 30

Compound: CCCCCc1c(C#N)cccc1Oc1ncc(Cl)cn1 [Compound 87]
- Plant response rating, Ryegrass, Italian [1, 25]: 0
- Ryegrass, Italian plant response rating [1, 21]: 20
- Plant response rating, Ragweed [2, 25]: 0
- Ragweed plant response rating [2, 21]: 0
- Plant response rating, Barnyardgrass [3, 25]: 70
- Barnyardgrass plant response rating [3, 21]: 100
- Plant response rating, Pigweed [4, 25]: 40
- Pigweed plant response rating [4, 21]: 100
- Plant response rating, Foxtail, Giant [5, 25]: 60
- Foxtail, Giant plant response rating [5, 21]: 100
- Plant response rating, Kochia [6, 25]: 30
- Kochia plant response rating [6, 21]: 90
- Plant response rating, Ducksalad [7]: 100
- Plant response rating, Barnyardgrass [8]: 50
- Plant response rating, Rice [9]: 35
- Plant response rating, Sedge, Umbrella [10]: 100
- Ryegrass, Italian plant response rating [11, 26]: 0
- Ryegrass, Italian plant response rating [11, 27]: 30
- Ragweed plant response rating [12, 26]: 0
- Ragweed plant response rating [12, 27]: 0
- Wheat plant response rating [13, 26]: 20
- Wheat plant response rating [13, 27]: 30
- Corn plant response rating [14, 26]: 40
- Corn plant response rating [14, 27]: 50
- Barnyardgrass plant response rating ([15]; 31 g ai/ha): 40
- Barnyardgrass plant response rating ([15]; 125 g ai/ha): 100
- Pigweed plant response rating [16, 26]: 40
- Pigweed plant response rating [16, 27]: 60
- Galium plant response rating [17, 26]: 30
- Galium plant response rating [17, 27]: 70
- Foxtail, Giant plant response rating [18, 26]: 40
- Foxtail, Giant plant response rating [18, 27]: 90
- Kochia plant response rating [19, 26]: 100
- Kochia plant response rating [19, 27]: 100
- Blackgrass plant response rating [20, 26]: 10
- Blackgrass plant response rating [20, 27]: 70

Compound: FC(F)(F)CCCCc1c(Oc2ncc(Cl)cn2)cccc1C1CC1 [Compound 135]
- Plant response rating, Ryegrass, Italian [1, 25]: 0
- Plant response rating, Ryegrass, Italian [1, 21]: 10
- Plant response rating, Ragweed [2, 25]: 0
- Plant response rating, Ragweed [2, 21]: 0
- Plant response rating, Barnyardgrass [3, 25]: 0
- Plant response rating, Barnyardgrass [3, 21]: 40
- Plant response rating, Pigweed [4, 25]: 0
- Plant response rating, Pigweed [4, 21]: 20
- Plant response rating, Foxtail, Giant [5, 25]: 0
- Plant response rating, Foxtail, Giant [5, 21]: 50
- Plant response rating, Kochia [6, 25]: 0
- Plant response rating, Kochia [6, 21]: 0
- Plant response rating, Ducksalad [7]: 85
- Plant response rating, Barnyardgrass [8]: 0
- Plant response rating, Rice [9]: 20
- Plant response rating, Sedge, Umbrella [10]: 85
- Ryegrass, Italian plant response rating [11, 28]: 0
- Ryegrass, Italian plant response rating [11, 27]: 10
- Ragweed plant response rating [12, 28]: 0
- Ragweed plant response rating [12, 27]: 10
- Wheat plant response rating [13, 28]: 0
- Wheat plant response rating [13, 27]: 0
- Corn plant response rating [14, 28]: 10
- Corn plant response rating [14, 27]: 20
- Barnyardgrass plant response rating ([15]; 31 g ai/ha): 0
- Barnyardgrass plant response rating ([15]; 125 g ai/ha): 10
- Pigweed plant response rating [16, 28]: 40
- Pigweed plant response rating [16, 27]: 90
- Galium plant response rating [17, 28]: 50
- Galium plant response rating [17, 27]: 80
- Foxtail, Giant plant response rating [18, 28]: 10
- Foxtail, Giant plant response rating [18, 27]: 20
- Kochia plant response rating [19, 28]: 10
- Kochia plant response rating [19, 27]: 60
- Blackgrass plant response rating [20, 28]: 0
- Blackgrass plant response rating [20, 27]: 20

Compound: O=C(OCCCl)c1c(Br)cccc1Oc1ncc(Cl)cn1 [Compound 46]
- Plant response rating, Ryegrass, Italian [1, 25]: 0
- Ryegrass, Italian plant response rating [1, 21]: 0
- Plant response rating, Ragweed [2, 25]: 0
- Ragweed plant response rating [2, 21]: 0
- Plant response rating, Barnyardgrass [3, 25]: 0
- Barnyardgrass plant response rating [3, 21]: 20
- Plant response rating, Pigweed [4, 25]: 50
- Pigweed plant response rating [4, 21]: 100
- Plant response rating, Foxtail, Giant [5, 25]: 40
- Foxtail, Giant plant response rating [5, 21]: 100
- Plant response rating, Kochia [6, 25]: 0
- Kochia plant response rating [6, 21]: 70
- Plant response rating, Ducksalad [7]: 75
- Plant response rating, Barnyardgrass [8]: 0
- Plant response rating, Rice [9]: 10
- Plant response rating, Sedge, Umbrella [10]: 80
- Ryegrass, Italian plant response rating [11, 26]: 0
- Ryegrass, Italian plant response rating (0 to 100 scale) [11, 23]: 0
- Ragweed plant response rating [12, 26]: 0
- Ragweed plant response rating (0 to 100 scale) [12, 23]: 0
- Wheat plant response rating [13, 26]: 0
- Wheat plant response rating (0 to 100 scale) [13, 23]: 0
- Corn plant response rating [14, 26]: 0
- Corn plant response rating (0 to 100 scale) [14, 23]: 10
- Barnyardgrass plant response rating ([15]; 31 g ai/ha): 0
- Barnyardgrass plant response rating (0 to 100 scale) ([15]; 125 g ai/ha): 30
- Pigweed plant response rating [16, 26]: 60
- Pigweed plant response rating (0 to 100 scale) [16, 23]: 100
- Galium plant response rating [17, 26]: 50
- Galium plant response rating (0 to 100 scale) [17, 23]: 70
- Foxtail, Giant plant response rating [18, 26]: 0
- Foxtail, Giant plant response rating (0 to 100 scale) [18, 23]: 40
- Kochia plant response rating [19, 26]: 30
- Kochia plant response rating (0 to 100 scale) [19, 23]: 90
- Blackgrass plant response rating [20, 26]: 0
- Blackgrass plant response rating (0 to 100 scale) [20, 23]: 0
